According to patent publication US11478445B2, “Method for treating acute myeloid leukemia” (Bionomics Limited, priority 2017, dated 2022):

Legend:
HL-60 AML cell line = assay: MTS proliferation assay, HL-60; type: cell-based
Protocol: (§1) The cell lines (MV4; 11 and HL-60) were plated in 96-well plates at 1×10^4 cells/well in 50 uL of complete growth media. Cells were plated in triplicate wells for each dose being tested. EX 1 (in DMSO), Oxi4503 (EndoTherm, Batch #EN09013, in water), CA4P (Selleckchem, Cat #S7204, in water) and Plinabulin (Selleckchem, Cat #S1176, in DMSO) was reconstituted immediately prior to use at 10 mM in appropriate diluent as indicated. The drug was prepared 2× concentrated in media and 50 uL added to respective wells (0.1% DMSO or water, final concentration). After 72 hours, 20 μL of CellTiter 96 AQueous One Solution reagent (Promega cat #G3581) was added to each well and the plate incubated for 2 h at 37° C. before absorbance was measured at 492 nm using a Thermo Multiskan Ascent96/384 Plate Reader.
(§2) To compare the efficacy of EX 1 with other tubulin polymerisation inhibitors, MTS proliferation assays were performed on MV4; 11 and HL-60 AML cell lines (Table 1). […] Cells were cultured with the compounds for 72 hours before viability was measured by the addition of CellTiter 96 AQueous One Solution reagent (Promega cat #G3581) and absorbance measured at 492 nm. IC50 was calculated using the absolute IC50 method in GraphPad Prism 6.

MV4; 11 AML cell line = assay: MTS proliferation assay, MV4;11; type: cell-based
Protocol: as §1, §2

[1] = tested on: chronic lymphocytic leukaemia (CLL) cells; conditions: Bates et al. 2016; cited from earlier work
[2] = tested on: Caspase 3/7 activity in primary AML MNC samples; assay: Caspase-Glo 3/7 assay in primary AML samples; type: cell-based, human
Protocol: Cryopreserved mononuclear cells (MNC from BM or leukapheresis samples) were thawed in a water bath at 37° C. and cell suspension transferred to a 50 mL tube. 20 mL of IMDM media (Sigma, 13390) supplemented with 20% FBS (JRH Biosciences), 50 U/mL DNase I (Sigma), 100 IU/mL penicillin (Sigma), 100 μg/mL streptomycin (Sigma) and 2 mM L-glutamine (Sigma) was added dropwise to the cells while the tube was being vortexed slowly (or mixed by hand). The cells were centrifuged at 400 g for 5 min, supernatant was discarded and the cells were washed once with 20 mL PBS. […] The next morning, viability was determined by trypan blue exclusion and samples with viability lower than 85% underwent dead cell removal by density gradient centrifugation as follows: 15 mL of Lymphoprep (AXIS-Shield) was transferred to a 50 mL tube and the cell suspension (25 mL) carefully overlayed (so as not to disturb the interface mixing with the Lymphoprep). […] Viability and cell density were determined by trypan blue exclusion and cells were plated for respective experiments as described in the Results section.
10^4 cells (10 μL) of each sample/treatment were aliquoted in triplicate wells of a 96-well plate (white wall OptiPlate 96, Perkin Elmer) containing 40 μL complete media. […] Luminescence was measured with a FLOUstar OPTIMA plate reader (BMG Labtech). […]

COc1cc(C(=O)c2c(C)oc3c(O)c(OC)ccc23)cc(OC)c1OC [EX 1, 2-Methyl-7-hydroxy-3-(3,4,5-trimethoxybenzoyl)-6-methoxybenzofuran]
IC50 compared with Oxi4503, CA4P and Plinabulin (HL-60 AML cell line; HL-60, 72 h): lowest IC50 | potency relative to any other VDAs (times more potent) (HL-60 AML cell line; HL-60, 72 h exposure): at least 10 times | potency relative to any other VDAs (times more potent) (MV4; 11 AML cell line; MV4-11, 72 h exposure): at least 10 times | IC50 compared with Oxi4503, CA4P and Plinabulin (MV4; 11 AML cell line; MV4;11, 72 h): lowest IC50 | apoptosis via P-JNK and Noxa [1]: induce apoptosis | caspase 3/7 activity ([2]; AML480, 24 h): some increase in caspase activity | caspase 3/7 activity compared to DMSO ([2]; all the AML samples, 48 h): increase in caspase activity
